# Key:
# Test in all cases: relative viability (nuclei count vs DMSO), 5 days (fraction); higher = more cells survive
# [1] = compound: N#CC[C@H](C1CCCC1)n1cc(-c2ncnc3[nH]ccc23)cn1 [Ruxolitinib] + O=C(c1cc(Cc2n[nH]c(=O)c3ccccc23)ccc1F)N1CCN(C(=O)C2CC2)CC1 [Olaparib] (partner 8 µM)
# In short: (§1)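 A single step with final 0.05% Triton X-100, 1% formaldehyde and 1 ug/ml Hoechst fixed the cells and stained nuclei 5 days after treatment. Lung cancer cell lines in 1536-well plates had been treated by pin tool the day after seeding with one drug alone or a fixed anchor-drug dose plus five library-drug doses (not always all listed) in √10 steps, and nuclei were counted on 4× images. Relative viability is the ratio of nuclei in treated wells to nuclei in vehicle wells, taken as the median of duplicate plates.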
# [2] = compound: CS(=O)(=O)c1ccc(C(=O)Nc2ccc(Cl)c(-c3ccccn3)c2)c(Cl)c1 [Vismodegib] + CC(=O)Nc1cccc(-n2c(=O)n(C3CC3)c(=O)c3c(Nc4ccc(I)cc4F)n(C)c(=O)c(C)c32)c1 [Trametinib] (partner 0.02 µM)
# In short: as §1
# [3] = compound: CS(=O)(=O)c1ccc(-c2cnc(N)c(C(=O)Nc3ccccc3)n2)cc1 [VE-821] + CC(=O)Nc1cccc(-n2c(=O)n(C3CC3)c(=O)c3c(Nc4ccc(I)cc4F)n(C)c(=O)c(C)c32)c1 [Trametinib] (partner 0.02 µM)
# In short: as §1
# [4] = compound: N#CC[C@H](C1CCCC1)n1cc(-c2ncnc3[nH]ccc23)cn1 [Ruxolitinib] + NC(=O)Nc1cc(-c2cccc(F)c2)sc1C(=O)N[C@H]1CCCNC1 [AZD7762] (partner 0.2 µM)
# In short: as §1
Cell Line,relative viability ([1]; first compound 0.08 µM),relative viability ([1]; first compound 0.253 µM),relative viability ([1]; first compound 0.8 µM),relative viability ([1]; first compound 2.53 µM),relative viability ([1]; first compound 8 µM),relative viability ([2]; first compound 0.08 µM),relative viability ([2]; first compound 0.253 µM),relative viability ([2]; first compound 0.8 µM),relative viability ([2]; first compound 2.53 µM),relative viability ([2]; first compound 8 µM),relative viability ([3]; first compound 0.08 µM),relative viability ([3]; first compound 0.253 µM),relative viability ([3]; first compound 0.8 µM),relative viability ([3]; first compound 2.53 µM),relative viability ([3]; first compound 8 µM),relative viability ([4]; first compound 0.08 µM),relative viability ([4]; first compound 0.253 µM),relative viability ([4]; first compound 0.8 µM),relative viability ([4]; first compound 2.53 µM),relative viability ([4]; first compound 8 µM)
201T,0.941,0.964,0.972,1.01,0.894,0.724,0.721,0.737,0.698,0.657,0.743,0.721,0.725,0.734,0.693,0.583,0.622,0.595,0.649,0.763
A549,0.226,0.36,0.35,0.331,0.0796,–,–,–,–,–,–,–,–,–,–,–,–,–,–,–
A-427,0.749,0.732,0.739,0.67,0.632,0.812,0.82,0.654,0.777,0.913,0.868,0.676,0.812,0.686,0.495,0.821,0.763,0.729,0.453,0.508
ABC-1,–,0.886,0.892,0.505,1.02,–,–,–,–,–,–,–,–,–,–,–,1.07,0.834,0.743,0.928
BEN,1.16,1.27,1.24,0.96,0.994,1.14,1.03,0.873,1.14,1.1,1.08,1.02,0.982,1.14,1.09,0.777,0.655,0.793,0.813,0.827
CAL-12T,0.627,0.779,0.756,0.673,0.67,0.309,0.333,0.372,0.355,0.426,0.372,0.355,0.325,0.322,0.325,0.623,0.688,0.694,0.732,0.608
COR-L23,0.369,0.371,0.376,0.329,0.272,0.525,0.532,0.658,0.58,0.67,0.658,0.658,0.587,0.759,0.535,–,–,–,–,–
COR-L 105,–,0.614,0.652,0.614,0.606,0.451,0.517,0.435,0.385,0.475,0.463,0.412,0.483,0.4,0.449,–,–,–,–,–
Calu-6,0.575,0.62,0.577,–,0.39,–,–,–,–,–,–,–,–,–,–,–,–,–,–,–
ChaGo-K-1,0.42,0.445,0.379,0.347,0.319,0.849,0.904,0.919,0.781,0.796,0.981,0.932,0.866,0.969,0.851,0.909,0.853,0.869,0.834,0.703
EBC-1,0.718,0.726,0.77,0.708,0.533,–,–,–,–,–,–,–,–,–,–,–,–,–,–,–
EKVX,–,0.837,0.947,0.731,0.759,–,0.392,0.273,0.273,0.315,0.347,0.317,0.298,0.376,0.3,–,0.77,0.848,0.799,0.698
EMC-BAC-2,0.465,0.482,0.478,0.478,0.406,0.871,0.847,0.806,0.859,0.953,0.925,0.856,0.984,1.02,0.966,1.07,1.03,1.3,1.08,0.695
EPLC-272H,0.829,0.922,0.818,0.544,0.344,0.276,0.269,0.246,0.282,0.297,0.291,0.28,0.273,0.289,0.27,0.321,0.267,0.244,0.285,0.316
H3255,0.532,0.547,0.539,0.443,0.457,0.648,0.602,0.573,0.614,0.668,0.666,0.646,0.619,0.88,0.63,0.783,0.868,1.08,0.774,0.743
HARA,1.17,0.841,1.04,0.793,0.584,0.749,–,0.613,0.689,0.659,0.686,1.08,0.553,0.767,0.608,0.344,0.365,0.377,0.0804,0.304
HCC-15,0.72,0.692,0.721,0.537,0.454,0.356,0.352,0.345,0.401,0.383,0.354,0.334,0.39,0.499,0.487,1.09,0.878,1.23,1.12,1.17
HCC-44,0.958,0.889,0.978,0.922,0.995,1.11,1.05,1.05,1.04,0.976,1.11,1.03,1.12,1.13,0.961,0.947,1.05,1,0.994,1.05
HCC-78,0.779,0.872,0.897,0.866,0.934,0.826,0.768,0.598,0.743,0.739,0.816,0.646,0.689,0.855,0.917,0.695,0.484,0.481,0.631,0.628
HCC-366,0.424,0.417,0.39,0.287,0.197,0.348,0.292,0.334,0.37,0.343,0.38,0.381,0.293,0.13,0.0642,0.286,0.253,0.262,0.166,0.246
